Measured values taken from patent publication US20050107289A1, “Anti-microbial peptides and compositions” (priority 2001, published 2005).
Where two headings read alike, the source gives them in different places. Blank lines part the entries; values can stand above or below the compound they belong to. Non-standard residues stand in square brackets, D forms with d. Residues, ends and D or L forms follow the SMILES beside them.

Legend:
[1] = test system: murine red blood cells; test: Red blood cell hemolysis; assay type: cell-based, mouse
Procedure: Selectivity of cyclic peptides for bacterial over mammalian cells was evaluated by measuring red blood cell hemolytic activities as described in Tosteson, M. T. Holmes, S. J., Razin, M. and Tosteson, D. C. Melittin Lysis of Red Cells, J. Membrane Biol. 87, 35-44(1985). Heparinized murine blood was centrifuged at 1000×g for 10 minutes. The supernatant and the buffy coat were removed. Erythrocytes were washed three times with 0.9% saline solution and then resuspended to a concentration of 5% in saline containing 10% FBS (v/v). Red blood cells were then treated with serial dilutions of test peptides in a 96 well plate at 37° C. for 30 minutes. Control samples included a saline solution arid 1% Triton X-100 as 0 and 100% hemolysis, respectively. In some cases, mellitin was used as a further control. Mellitin is a linear peptide that is hemolytic against mammalian red blood cells in vitro at a concentration of about 10 μg/ml. Plates were centrifuged at 1000 g for 10 minutes. Aliquots of the supernatant were diluted 2 times with saline solution and the absorbance was measured at 560 nm.

[2] = test system: S. aureus (MRSA) ATCC 33591; assay type: cell-based, Staphylococcus aureus; conditions: for MRSA (in vitro activity): Table 9; for S. aureus (MRSA) MIC: ATCC 33591
Procedure: (§1) The antimicrobial activity of the peptides was determined using a broth dilution assay essentially as descried in the guidelines of the National Committee for […] (NCCLS) [National Committee for Clinical Laboratory Standards. Methods for dilution antimicrobial susceptibility tests for bacteria that grow aerobically. Fourth edition. Approved Standard (1997). Document M7-A4. […] The microdilution method has the advantages of requiring less amount of peptide for each assay and the possibility of multiple simultaneous inoculations and was used in most studies. Several of the strains of bacteria tested are further described in Table 3.
(§2) Preparation of peptide solutions. Stock peptide solutions were prepared in 5% DMSO in aq. sucrose (9%). Determination of peptide concentrations was done by quantitative HPLC analysis using known concentrations of internal standards and/or by measuring UV absorption of tryptophane-containing peptide solutions in H2O (λ=280 εTrp: 5690). Serial 2-fold dilutions were made in the above DMSO/aq. sucrose (9%) mixture with concentrations ranging approximately 400-2 μg/ml and aliquots were dispensed in test tubes (100 μl) for the macrodilution test or in microtiter plates (20 μl) for the microdilution assays.
(§3) Inoculum preparation. Overnight cultures of different microorganisms grown in suitable media were diluted 4000 times to an approximate inoculum size of 2.5×10^5 cfu/ml.
(§4) Macrodilution method. Macrodilution methods were performed using procedures similar to those described in the National Committee for Clinical Laboratory Standards. Methods for dilution antimicrobial susceptibility tests for bacteria that grow aerobically. Fourth edition. Approved Standard (1997). Document M7-A4. (NCCLS,Villanova, Pa., 1997). Two ml aliquots of the above inoculum were dispensed to test tubes containing different peptide solutions.
(§5) Microdilution method. Microdilution methods were performed using procedures similar to those described in the National Committee for Clinical Laboratory Standards. Methods for dilution antimicrobial susceptibility tests for bacteria that grow aerobically. Fourth edition. Approved Standard (1997). Document M7-A4.

[3] = test system: vancomycin-resistant Enterococus faecalis (VRE)(ATCC 51575); assay type: cell-based, Enterococcus faecalis; design: key to VRE (in vitro activity): peptide concentration in μg/ml (broth dilution assay); conditions: Table 9
Procedure: as §1, §2, §3, §4, §5

[4] = media b: cation adjusted Meuller Hinton broth (MHBII)
[5] = media c: Brain Heart Infusion (BHI)
[6] = media a: anti-microbial media-3 (AM-3)

Compound: CC(C)C[C@H]1NC(=O)[C@H](CCCCN)NC(=O)[C@@H](CC(C)C)NC(=O)[C@H](CCCCN)NC(=O)[C@@H](CC(C)C)NC(=O)[C@H](CCCCN)NC(=O)[C@@H](CC(C)C)NC(=O)[C@H](CCCCN)NC1=O [SEQ ID NO:4, KLKLKLKL] (cyclo(K[dL]K[dL]K[dL]K[dL]))
RBC Hemolysis (HD50) [1]: >200 | MRSA (in vitro activity) [2, 4]: >200 | VRE (in vitro activity) [3, 5]: >200

S. aureus (MRSA) MIC [2]: 60 µg/mL
Compound: CC(C)C[C@@H](NC(=O)[C@H](Cc1c[nH]c2ccccc12)NC(=O)[C@@H](CC(C)C)NC(=O)[C@H](Cc1c[nH]c2ccccc12)NC(=O)[C@@H](CCCCN)NC(=O)[C@H](CCCCN)NC(=O)[C@@H](CCCCN)NC(=O)[C@@H](N)Cc1c[nH]c2ccccc12)C(=O)N[C@@H](Cc1c[nH]c2ccccc12)C(=O)O [SEQ ID NO:23, WKKKWLWLW] (H-W[dK]K[dK]W[dL]W[dL]W-OH; N-terminus and C-terminus assumed)

S. aureus (MRSA) MIC [2]: 50 µg/mL
Compound: CC(C)C[C@@H](NC(=O)[C@H](Cc1c[nH]c2ccccc12)NC(=O)[C@@H](CC(C)C)NC(=O)[C@H](Cc1c[nH]c2ccccc12)NC(=O)[C@@H](CCCCN)NC(=O)[C@H](CCCCN)NC(=O)[C@H](N)CCCCN)C(=O)N[C@@H](Cc1c[nH]c2ccccc12)C(=O)O [SEQ ID NO:24, KKKWLWLW] (H-[dK]K[dK]W[dL]W[dL]W-OH; N-terminus and C-terminus assumed)

S. aureus (MRSA) MIC [2]: 2.5 to 3.8 µg/mL
Compound: CC(C)C[C@@H]1NC(=O)[C@@H](Cc2c[nH]c3ccccc23)NC(=O)[C@H](Cc2c[nH]c3ccccc23)NC(=O)[C@@H](CCCNC(=N)N)NC(=O)[C@H](CCC(N)=O)NC(=O)[C@@H](CCCNC(=N)N)NC(=O)[C@H](Cc2c[nH]c3ccccc23)NC(=O)[C@@H](Cc2c[nH]c3ccccc23)NC1=O [SEQ ID NO:36, QRWWLWWR] (cyclo(Q[dR]W[dW]L[dW]W[dR]))

S. aureus (MRSA) MIC [2]: 2.5 to 3.8 µg/mL
Compound: CC(C)C[C@@H]1NC(=O)[C@@H](Cc2c[nH]c3ccccc23)NC(=O)[C@H](C(C)C)NC(=O)[C@@H](CCCNC(=N)N)NC(=O)[C@H](CCC(N)=O)NC(=O)[C@@H](CCCNC(=N)N)NC(=O)[C@H](Cc2c[nH]c3ccccc23)NC(=O)[C@@H](Cc2c[nH]c3ccccc23)NC1=O [SEQ ID NO:38, QRVWLWWR] (cyclo(Q[dR]V[dW]L[dW]W[dR]))

S. aureus (MRSA) MIC [2]: 2.5 to 3.8 µg/mL
Compound: CC(C)C[C@@H]1NC(=O)[C@@H](Cc2c[nH]c3ccccc23)NC(=O)[C@H](Cc2ccccc2)NC(=O)[C@@H](CCCNC(=N)N)NC(=O)[C@H](CCC(N)=O)NC(=O)[C@@H](CCCNC(=N)N)NC(=O)[C@H](Cc2c[nH]c3ccccc23)NC(=O)[C@@H](Cc2c[nH]c3ccccc23)NC1=O [SEQ ID NO:39, QRFWLWWR] (cyclo(Q[dR]F[dW]L[dW]W[dR]))

Compound: CC(C)C[C@H]1NC(=O)[C@H](Cc2c[nH]c3ccccc23)NC(=O)[C@@H](Cc2ccccc2)NC(=O)[C@H](CCCCN)NC(=O)[C@@H](Cc2ccccc2)NC(=O)[C@H](Cc2c[nH]c3ccccc23)NC(=O)[C@@H](CC(C)C)NC(=O)[C@H](Cc2c[nH]c3ccccc23)NC1=O [SEQ ID NO:40, [KFWLWLWF]] (cyclo(K[dF]W[dL]W[dL]W[dF]))
RBC Hemolysis (HD50) [1]: >44 | MRSA (in vitro activity) [2, 6]: 33 | VRE (in vitro activity) ([3]; media a: AM-3): >44

Compound: CC(C)C[C@H]1NC(=O)[C@H](CCCCN)NC(=O)[C@@H](CC(C)C)NC(=O)[C@H](Cc2c[nH]c3ccccc23)NC(=O)[C@@H](CC(C)C)NC(=O)[C@H](Cc2c[nH]c3ccccc23)NC(=O)[C@@H](CC(C)C)NC(=O)[C@H](Cc2c[nH]c3ccccc23)NC1=O [SEQ ID NO:41, [KLWLWLWL]] (cyclo(K[dL]W[dL]W[dL]W[dL]))
RBC Hemolysis (HD50) [1]: 30 | MRSA (in vitro activity) [2, 4]: 12 | VRE (in vitro activity) [3, 5]: 25

Compound: CC(C)C[C@H]1NC(=O)[C@H](Cc2c[nH]c3ccccc23)NC(=O)[C@@H](CO)NC(=O)[C@H](CCCCN)NC(=O)[C@@H](Cc2ccccc2)NC(=O)[C@H](Cc2c[nH]c3ccccc23)NC(=O)[C@@H](CC(C)C)NC(=O)[C@H](Cc2c[nH]c3ccccc23)NC1=O [SEQ ID NO:42, [KSWLWLWF]] (cyclo(K[dS]W[dL]W[dL]W[dF]))
RBC Hemolysis (HD50) [1]: >26 | MRSA (in vitro activity) [2, 6]: >26 | VRE (in vitro activity) ([3]; media a: AM-3): >26

Compound: CC(C)C[C@H]1NC(=O)[C@H](Cc2c[nH]c3ccccc23)NC(=O)[C@@H](Cc2c[nH]c3ccccc23)NC(=O)[C@H](CCCCN)NC(=O)[C@@H](Cc2c[nH]cn2)NC(=O)[C@H](Cc2c[nH]c3ccccc23)NC(=O)[C@@H](CC(C)C)NC(=O)[C@H](Cc2c[nH]c3ccccc23)NC1=O [SEQ ID NO:43, [KWWLWLWH]] (cyclo(K[dW]W[dL]W[dL]W[dH]))
RBC Hemolysis (HD50) [1]: >23 | MRSA (in vitro activity) [2, 6]: 13 | VRE (in vitro activity) ([3]; media a: AM-3): 17

Compound: CC(C)C[C@H]1NC(=O)[C@H](Cc2c[nH]c3ccccc23)NC(=O)[C@@H](Cc2c[nH]c3ccccc23)NC(=O)[C@H](CCCCN)NC(=O)[C@@H](Cc2c[nH]c3ccccc23)NC(=O)[C@H](CCCCN)NC(=O)[C@@H](CC(C)C)NC(=O)[C@H](Cc2c[nH]c3ccccc23)NC1=O [SEQ ID NO:44, [KWWLWLKW]] (cyclo(K[dW]W[dL]W[dL]K[dW]))
RBC Hemolysis (HD50) [1]: >58 | MRSA (in vitro activity) [2, 6]: 4 | VRE (in vitro activity) ([3]; media a: AM-3): 4

Compound: CC(C)C[C@H]1NC(=O)[C@H](C)NC(=O)[C@@H](CC(C)C)NC(=O)[C@H](CCCCN)NC(=O)[C@@H](Cc2c[nH]cn2)NC(=O)[C@H](CCCCN)NC(=O)[C@@H](CC(C)C)NC(=O)[C@H](C)NC1=O [SEQ ID NO:45, [KHKLALAL]] (cyclo(K[dH]K[dL]A[dL]A[dL]))
RBC Hemolysis (HD50) [1]: >200 | MRSA (in vitro activity) [2, 4]: 50 | VRE (in vitro activity) [3, 5]: 200

Compound: CC(C)C[C@H]1NC(=O)[C@H](C)NC(=O)[C@@H](CC(C)C)NC(=O)[C@H](CCCCN)NC(=O)[C@@H](Cc2c[nH]cn2)NC(=O)[C@H](CCCCN)NC(=O)[C@@H](CC(C)C)NC(=O)[C@H](Cc2c[nH]c3ccccc23)NC1=O [SEQ ID NO:46, [KHKLALWL]] (cyclo(K[dH]K[dL]A[dL]W[dL]))
RBC Hemolysis (HD50) [1]: >200 | MRSA (in vitro activity) [2, 4]: 25 | VRE (in vitro activity) [3, 5]: 50

Compound: CC(C)C[C@H]1NC(=O)[C@H](C)NC(=O)[C@@H](CC(C)C)NC(=O)[C@H](Cc2ccccc2)NC(=O)[C@@H](CC(C)C)NC(=O)[C@H](CCCCN)NC(=O)[C@@H](Cc2c[nH]cn2)NC(=O)[C@H](CCCCN)NC1=O [SEQ ID NO:47, [KHKLFLAL]] (cyclo(K[dH]K[dL]F[dL]A[dL]))
RBC Hemolysis (HD50) [1]: >220 | MRSA (in vitro activity) [2, 4]: 3 | VRE (in vitro activity) [3, 5]: 13

Compound: CC(C)C[C@H]1NC(=O)[C@H](CCCCN)NC(=O)[C@@H](CO)NC(=O)[C@H](CCCCN)NC(=O)[C@@H](CC(C)C)NC(=O)[C@H](Cc2ccccc2)NC(=O)[C@@H](CC(C)C)NC(=O)[C@H](Cc2ccccc2)NC1=O [SEQ ID NO:55, [KSKLFLFL]] (cyclo(F[dL]F[dL]K[dS]K[dL]))
MRSA (in vitro activity) ([2]; media b: cation adjusted Meuller Hinton broth (MHBII), listed as [KSKLFLFL] (55)): 200 | VRE (in vitro activity) ([3]; media b: MHBII): 50

Compound: CC[C@H](C)[C@@H]1NC(=O)[C@@H](CC(C)C)NC(=O)[C@H](CCCCN)NC(=O)[C@@H](CO)NC(=O)[C@H](CCCCN)NC(=O)[C@@H](CC(C)C)NC(=O)[C@H]([C@@H](C)CC)NC(=O)[C@@H](CC(C)C)NC1=O [SEQ ID NO:58, [KSKLILIL]] (cyclo(I[dL]I[dL]K[dS]K[dL]))
MRSA (in vitro activity) ([2]; media b: cation adjusted Meuller Hinton broth (MHBII), listed as [KSKLILIL] (58)): >200 | VRE (in vitro activity) ([3]; media b: MHBII): 50

Compound: C[C@H](O)[C@H]1NC(=O)[C@H](CCCNC(=N)N)NC(=O)[C@@H](CO)NC(=O)[C@H](CCC(N)=O)NC(=O)[C@@H](Cc2c[nH]cn2)NC(=O)[C@H](CCCCN)NC1=O [SEQ ID NO:131, [KHQSRT]] (cyclo(K[dH]Q[dS]R[dT]))
MRSA (in vitro activity) [2, 6]: >200 | VRE (in vitro activity) ([3]; media a: AM-3): >200
